Like-named read-outs stand apart in the source and are kept apart here. Values belong to the compound of their own block, whether it stands above or below them. Where a SMILES comes first, the peptide text is derived from it. Where no end group is shown, it is not given here. K(Rhod) = not defined here
Assays:
CXCR4 = CXCR4 (Homo sapiens, UniProt P61073); test: Inhibition of SDF-1α-induced intracellular calcium release (Fura-2/AM, HeLa and U87 cells expressing CXCR4); type: cell-based; settings: for Concentration, required for complete inhibition of [Ca^2+ I] release: Table 3, peptides from second transmembrane domain of CXCR4; for Concentration, required for complete inhibition of [Ca ^2+ i] release: Table 1
Procedure: The effect of the peptides on CXCR4-mediated calcium fluxes in HeLa cells that naturally express the CXCR4 receptor and U87 cells stably expressing the CXCR4 receptor was tested as follows. Cells grown on Nunc cover glass chamber slides were incubated with 1 micromolar Fura-2/AM for 20 min in a CO2-incubator, rinsed with PBS and mounted on the stage of a Zeiss Axiovert inverted microscope. [Ca^2+]i measurements were performed using an Attofluor digital imaging system (Atto Instruments, Rockville, MD). Fluorescence of Fura was excited at alternating wavelength of 340 and 380 nm. Fluorescence was monitored by an intensified CCD camera using a 505 cut-off filter. Calibrations of [Ca^2+]i signals were performed using Ca^2+ standards containing 1 micromolar Fura. CXCR4 antagonists were tested on HeLa cells and U87 cells. Stromal cell-derived factor-1α (SDF-1α) was used as a specific CXCR4 agonist.
CCR5 antagonists, which were used in selectivity studies as described below, were tested on HEK (human kidney […]) cells stably expressing the CCR5 receptor and RANTES was used as an agonist. The antagonist activity of the peptides was evaluated by measuring the inhibition of agonist-evoked intracellular Ca^2+i release. These measurements were carried out in Fura-2/AM-treated cells, utilizing an Attofluor digital imaging system as described above. The agonist was SDF-1α.
Further optimization and structure-activity studies allowed to obtain antagonists derived from all but the third and fifth transmembrane domains (Table 2). Table 1. Activity of synthetic peptides corresponding to predicted transmembrane domains of CXCR4 in inhibition of SDF-1α-induced intracellular calcium release.
Table 2. Biological activity of CXCR4 antagonists derived from different transmembrane domains. Anti signaling activity was determined in inhibition of SDF-1α-induced intracellular calcium release. Anti-HIV-1 activity was assessed in cytoprotection assay utilizing CEM-SS cells infected with HIV-1RF.

CCKAR = target: T1, CCKAR (Rattus norvegicus, UniProt P30551); test: Inhibition of binding of fluorescent agonist RG-CCK-8, quantitative confocal laser scanning microscopy
T1 construct: expressed in transfected cells; host or cells: CHO cells
T1 sequence (P30551 1-444): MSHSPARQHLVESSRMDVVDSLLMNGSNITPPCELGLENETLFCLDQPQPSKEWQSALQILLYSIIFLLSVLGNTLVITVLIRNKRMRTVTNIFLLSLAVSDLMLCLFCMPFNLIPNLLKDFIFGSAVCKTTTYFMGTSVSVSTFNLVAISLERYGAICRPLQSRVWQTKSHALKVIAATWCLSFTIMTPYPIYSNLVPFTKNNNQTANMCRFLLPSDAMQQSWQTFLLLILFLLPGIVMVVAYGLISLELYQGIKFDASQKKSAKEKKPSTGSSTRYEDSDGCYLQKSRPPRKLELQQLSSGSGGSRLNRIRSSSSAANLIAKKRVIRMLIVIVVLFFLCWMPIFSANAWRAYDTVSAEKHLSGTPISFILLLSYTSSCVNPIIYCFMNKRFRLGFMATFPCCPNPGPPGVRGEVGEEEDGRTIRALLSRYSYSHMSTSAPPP

HIV-1RF = test: Anti-HIV-1 cytoprotection assay, CEM-SS cells infected with HIV-1 strain RF; type: cell-based
[1] = cytoprotection assay, CEM-SS cells infected with HIV-1RF, read-out: EC50 in anti-HIV-1 assay
[2] = SDF-1α-induced intracellular calcium release

Sequence of CXCR4 (P61073 whole entry, the tested form may be a part): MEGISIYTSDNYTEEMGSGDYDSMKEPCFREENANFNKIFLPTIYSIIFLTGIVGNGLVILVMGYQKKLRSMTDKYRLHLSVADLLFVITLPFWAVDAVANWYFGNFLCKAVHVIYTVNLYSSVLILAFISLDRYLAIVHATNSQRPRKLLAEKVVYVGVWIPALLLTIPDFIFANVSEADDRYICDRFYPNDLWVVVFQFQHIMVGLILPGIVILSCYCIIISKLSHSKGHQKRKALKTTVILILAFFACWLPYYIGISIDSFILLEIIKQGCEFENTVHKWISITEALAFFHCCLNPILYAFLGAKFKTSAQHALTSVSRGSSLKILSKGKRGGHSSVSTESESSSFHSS

Concentration, required for complete inhibition of [Ca^2+ I] release (CXCR4): 10 µM
Compound: CC[C@H](C)[C@H](NC(=O)[C@@H](NC(=O)[C@H](Cc1ccccc1)NC(=O)[C@H](CC(C)C)NC(=O)[C@H](CC(C)C)NC(C)=O)C(C)C)C(=O)N[C@H](C(=O)N[C@@H](CC(C)C)C(=O)N1CCC[C@H]1C(=O)N[C@@H](Cc1ccccc1)C(=O)N[C@@H](Cc1c[nH]c2ccccc12)C(=O)N[C@@H](C)C(=O)N[C@H](C(=O)N[C@@H](CC(=O)O)C(=O)N[C@@H](C)C(=O)N[C@H](C(=O)N[C@@H](C)C(=O)N[C@@H](CC(N)=O)C(=O)N[C@@H](CC(=O)O)C(=O)N[C@@H](CC(=O)O)C(=O)O)C(C)C)C(C)C)[C@@H](C)O [AcF-2-5]

IC50 (CCKAR; fluorescent agonist rhodamine green CCK-8, read-out: IC50 in inhibiton of RG-CCK-8 binding): 20 µM
Compound: CC[C@H](C)[C@H](NC(=O)[C@H](CCC(N)=O)NC(=O)[C@H](CC(C)C)NC(=O)[C@H](C)NC(=O)[C@H](CO)NC(=O)[C@H](CCC(N)=O)NC(=O)[C@H](Cc1c[nH]c2ccccc12)NC(=O)[C@H](CCC(=O)O)NC(=O)[C@H](CC(=O)O)NC(=O)[C@@H](N)CC(=O)O)C(=O)N[C@@H](CC(C)C)C(=O)N[C@@H](CC(C)C)C(=O)N[C@@H](Cc1ccc(O)cc1)C(=O)N[C@@H](CO)C(=O)N[C@H](C(=O)N[C@H](C(=O)N[C@@H](Cc1ccccc1)C(=O)N[C@@H](CC(C)C)C(=O)N[C@@H](CC(C)C)C(=O)N[C@@H](CO)C(=O)N[C@H](C(=O)NCC(=O)N[C@@H](CC(N)=O)C(=O)N[C@H](C(=O)N[C@@H](CC(C)C)C(=O)N[C@H](C(=O)N[C@H](C(=O)N[C@H](C(=O)N[C@H](C(=O)O)C(C)C)[C@@H](C)O)[C@@H](C)CC)C(C)C)[C@@H](C)O)C(C)C)[C@@H](C)CC)[C@@H](C)CC [CCKAR-1-6] (H-DDEWQSALQILLYSIIFLLSVGNTLVITV-OH)

Compound: CC[C@H](C)[C@H](NC(=O)CNC(=O)[C@@H]1CCCN1C(=O)[C@H](CC(C)C)NC(=O)[C@H](CC(C)C)NC(=O)[C@H](Cc1ccccc1)NC(=O)[C@H](CC(C)C)NC(=O)[C@@H](NC(=O)[C@H](CC(C)C)NC(=O)[C@H](CC(C)C)NC(=O)[C@H](CC(C)C)NC(=O)[C@H](Cc1ccccc1)NC(=O)[C@@H](NC(=O)[C@H](CCC(N)=O)NC(=O)[C@H](CC(=O)O)NC(=O)[C@@H](N)CC(=O)O)[C@@H](C)O)[C@@H](C)CC)C(=O)N[C@H](C(=O)N[C@@H](CCSC)C(=O)N[C@H](C(=O)N[C@H](C(=O)N[C@@H](C)C(=O)N[C@@H](Cc1ccc(O)cc1)C(=O)NCC(=O)N[C@@H](CC(C)C)C(=O)O)C(C)C)C(C)C)C(C)C [CCKAR-5-3] (H-DDQTFLLLILFLLPGIVMVVAYGL-OH)
IC50 (CCKAR): > 50 µM

Compound: CC[C@H](C)[C@H](N)C(=O)N[C@H](C(=O)N[C@H](C(=O)N[C@@H](CC(C)C)C(=O)N[C@@H](Cc1ccccc1)C(=O)N[C@@H](Cc1ccccc1)C(=O)N[C@@H](CC(C)C)C(=O)N[C@@H](CS)C(=O)N[C@@H](Cc1c[nH]c2ccccc12)C(=O)N[C@@H](CCSC)C(=O)N1CCC[C@H]1C(=O)N[C@H](C(=O)N[C@@H](Cc1ccccc1)C(=O)N[C@@H](CO)C(=O)N[C@@H](C)C(=O)N[C@@H](CC(N)=O)C(=O)N[C@@H](C)C(=O)N[C@@H](Cc1c[nH]c2ccccc12)C(=O)N[C@@H](CCCNC(=N)N)C(=O)N[C@@H](C)C(=O)N[C@@H](Cc1ccc(O)cc1)C(=O)N[C@@H](CC(=O)O)C(=O)N[C@H](C(=O)N[C@H](C(=O)N[C@@H](CC(=O)O)C(=O)N[C@@H](CC(=O)O)C(=O)O)C(C)C)[C@@H](C)O)[C@@H](C)CC)C(C)C)C(C)C [CCKAR-6-4] (H-IVVLFFLCWMPIFSANAWRAYDTVDD-OH)
IC50 (CCKAR): > 50 µM

Compound: CC[C@H](C)[C@H](NC(=O)[C@@H](NC(=O)[C@H](Cc1ccccc1)NC(=O)[C@H](CC(C)C)NC(=O)[C@@H](N)CC(C)C)C(C)C)C(=O)N[C@H](C(=O)N[C@@H](CC(C)C)C(=O)N1CCC[C@H]1C(=O)N[C@@H](Cc1ccccc1)C(=O)N[C@@H](Cc1c[nH]c2ccccc12)C(=O)N[C@@H](C)C(=O)N[C@H](C(=O)N[C@@H](CC(=O)O)C(=O)N[C@@H](C)C(=O)N[C@H](C(=O)N[C@@H](C)C(=O)N[C@@H](CC(N)=O)C(=O)N[C@@H](Cc1c[nH]c2ccccc12)C(=O)N[C@@H](Cc1ccc(O)cc1)C(=O)N[C@@H](Cc1ccccc1)C(=O)NCC(=O)N[C@@H](CC(N)=O)C(=O)N[C@@H](CC(=O)O)C(=O)N[C@@H](CC(=O)O)C(=O)O)C(C)C)C(C)C)[C@@H](C)O [Peptide F-2-2] (H-LLFVITLPFWAVDAVANWYFGNDD-OH)
EC50 (HIV-1RF; [1]): 2.27 µM

Compound: CC[C@H](C)[C@H](NC(=O)[C@H](Cc1ccccc1)NC(=O)[C@H](CC(=O)O)NC(=O)[C@@H]1CCCN1C(=O)[C@@H](NC(=O)[C@@H](NC(=O)[C@H](CC(C)C)NC(=O)[C@H](CC(C)C)NC(=O)[C@H](CC(C)C)NC(=O)[C@H](C)NC(=O)[C@@H]1CCCN1C(=O)[C@@H](NC(=O)[C@H](Cc1c[nH]c2ccccc12)NC(=O)[C@@H](NC(=O)CNC(=O)[C@@H](NC(=O)[C@H](Cc1ccc(O)cc1)NC(=O)[C@@H](N)C(C)C)C(C)C)C(C)C)[C@@H](C)CC)[C@@H](C)O)[C@@H](C)CC)C(=O)N[C@@H](Cc1ccccc1)C(=O)N[C@@H](C)C(=O)N[C@@H](CC(N)=O)C(=O)N[C@@H](CC(=O)O)C(=O)N[C@@H](CC(=O)O)C(=O)O [Peptide F-4-2] (H-VYVGVWIPALLLTIPDFIFANDD-OH)
EC50 (HIV-1RF; [1]): 0.3 µM

Compound: CC[C@H](C)[C@H](NC(=O)CNC(=O)[C@@H](NC(=O)[C@H](Cc1ccc(O)cc1)NC(=O)[C@H](Cc1ccc(O)cc1)NC(=O)[C@@H]1CCCN1C(=O)[C@H](CC(C)C)NC(=O)[C@H](Cc1c[nH]c2ccccc12)NC(=O)[C@H](CS)NC(=O)[C@H](C)NC(=O)[C@H](Cc1ccccc1)NC(=O)[C@H](Cc1ccccc1)NC(=O)[C@H](C)NC(=O)[C@H](CC(C)C)NC(=O)[C@@H](NC(=O)[C@H](CC(C)C)NC(=O)[C@@H](NC(=O)[C@@H](N)C(C)C)[C@@H](C)CC)[C@@H](C)CC)[C@@H](C)CC)C(=O)N[C@@H](CO)C(=O)N[C@H](C(=O)N[C@@H](CC(=O)O)C(=O)O)[C@@H](C)CC [Peptide F-6-1] (H-VILILAFFACWLPYYIGISID-OH)
EC50 (HIV-1RF; [1]): > 50 µM

Compound: CC[C@H](C)[C@H](NC(=O)[C@@H]1CCCN1C(=O)[C@H](CC(N)=O)NC(=O)[C@H](CC(C)C)NC(=O)[C@H](CS)NC(=O)[C@H](CS)NC(=O)[C@H](Cc1c[nH]cn1)NC(=O)[C@H](Cc1ccccc1)NC(=O)[C@H](Cc1ccccc1)NC(=O)[C@H](C)NC(=O)[C@H](CC(C)C)NC(=O)[C@H](C)NC(=O)[C@H](CCC(=O)O)NC(=O)[C@H](CC(=O)O)NC(=O)[C@@H](N)CC(=O)O)C(=O)N[C@@H](CC(C)C)C(=O)N[C@@H](Cc1ccc(O)cc1)C(=O)N[C@@H](C)C(=O)N[C@@H](Cc1ccccc1)C(=O)N[C@@H](CC(C)C)C(N)=O [Peptide F-7-3] (H-DDEALAFFHCCLNPILYAFL-NH2; N-terminus assumed)
Concentration, required for inhibition of signal transduction (CXCR4; Table 2, SDF-1α-induced intracellular calcium release): 25 µM | EC50 (HIV-1RF; 1RF): 3.27 µM

Concentration, required for complete inhibition of [Ca^2+ I] release (CXCR4): 8 µM
Compound: ACLLFVITLPFWAVDAVANWYFG NDDK(Rhod) D-OH (ACLLFVITLPFWAVDAVANWYFGNDD-{K(Rhod)-Asp-OH}; reading uncertain; also: printed as ACLLFVITLPFWAVDAVANWYFG NDDK(Rhod) D-OH) [Rhod - F-2]

Concentration, required for complete inhibition of [Ca ^2+ i] release (CXCR4; [2]): > 100 µM
Compound: ALAFFHCCLNPILYAFLGAK-NH2 (cysteine pairing not given here) [Peptide F-7-1]

Concentration, required for complete inhibition of [Ca ^2+ i] release (CXCR4; [2]): >50 µM
Compound: HIMVGLILPGIVILSCYCIII-NH2 (cysteine pairing not given here) [Peptide F-5-1]
